According to PMC9046198, “Peptidoglycan biosynthesis is driven by lipid transfer along enzyme-substrate affinity gradients” (Nature Communications, 2022):

Columns and labels:
[1] = target: T1, MraY (Aquifex aeolicus, UniProt O66465); experiment: native MS, endogenous adducts and exogenous C55-P titration; type: binding
T1 construct: wild-type MraY, MBP tag removed with HRV3C protease
T1 sequence (O66465 1-359): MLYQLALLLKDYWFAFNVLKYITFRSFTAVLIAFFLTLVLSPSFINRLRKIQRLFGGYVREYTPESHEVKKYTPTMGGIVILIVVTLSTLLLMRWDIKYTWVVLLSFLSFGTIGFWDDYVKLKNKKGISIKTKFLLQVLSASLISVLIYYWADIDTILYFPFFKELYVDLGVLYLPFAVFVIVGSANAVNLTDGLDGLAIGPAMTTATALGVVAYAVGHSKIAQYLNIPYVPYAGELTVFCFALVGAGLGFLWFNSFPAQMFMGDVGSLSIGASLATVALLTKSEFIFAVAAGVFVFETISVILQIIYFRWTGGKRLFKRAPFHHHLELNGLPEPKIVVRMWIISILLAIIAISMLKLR

[2] = target: T2, MurG (Escherichia coli, UniProt P17443); experiment: turnover by purified MurG (with MraY-bound lipid I) to lipid II monitored by native MS; type: biochemical
T2 construct: MurG-GFP-His6 fusion, tag removed with TEV protease
T2 sequence (P17443 2-355): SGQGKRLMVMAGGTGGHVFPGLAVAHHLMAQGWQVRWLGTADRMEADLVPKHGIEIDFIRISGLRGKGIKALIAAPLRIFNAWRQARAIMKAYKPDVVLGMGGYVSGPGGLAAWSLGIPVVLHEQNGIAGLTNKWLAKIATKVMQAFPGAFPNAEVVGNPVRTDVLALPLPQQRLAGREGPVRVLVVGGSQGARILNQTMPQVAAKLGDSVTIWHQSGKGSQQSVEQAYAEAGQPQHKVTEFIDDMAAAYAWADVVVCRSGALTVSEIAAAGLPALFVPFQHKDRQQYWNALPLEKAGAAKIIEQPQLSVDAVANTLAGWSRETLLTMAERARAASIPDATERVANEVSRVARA

[3] = target: T2, MurG; experiment: native MS titration ([…] MurG, […] lipid I), apparent Kd; type: binding
[4] = target: T2, MurG; experiment: native MS titration, apparent Kd; type: binding
[5] = target: T1, MraY; experiment: native MS binding to MraY dimer; also inhibits lipid I synthesis by purified MraY ([…])

Compound: CC(C)=CCC/C(C)=C/CC/C(C)=C/CC/C(C)=C\CC/C(C)=C\CC/C(C)=C\CC/C(C)=C\CC/C(C)=C\CC/C(C)=C\CC/C(C)=C\CC/C(C)=C\COP(=O)(O)O [C55-P, undecaprenyl phosphate]
- native MS, endogenous adducts and exogenous C55-P titration [1]: The binding of up to four C55-P molecules per MraY dimer could be clearly resolved

Compound: CC(=O)N[C@H]1[C@@H](OP(=O)(O)OP(=O)(O)OC[C@H]2O[C@@H](n3ccc(=O)[nH]c3=O)[C@H](O)[C@@H]2O)O[C@H](CO)[C@@H](O)[C@@H]1O [UDP-GlcNAc]
- turnover by purified MurG (with MraY-bound lipid I) to lipid II monitored by nat [2]: we incubated MraY with MurG and UDP-GlcNAc and observed the formation of lipid II

Compound: CC(=O)N[C@H]1[C@@H](OP(=O)(O)OP(=O)(O)OC/C=C(/C)CC/C=C(/C)CC/C=C(/C)CC/C=C(/C)CC/C=C(/C)CC/C=C(/C)CC/C=C(/C)CC/C=C(/C)CC/C=C(\C)CC/C=C(\C)CCC=C(C)C)O[C@H](CO)[C@@H](O)[C@@H]1O[C@H](C)C(=O)N[C@@H](C)C(=O)N[C@H](CCC(=O)N[C@@H](CCCCN)C(=O)N[C@H](C)C(=O)N[C@H](C)C(=O)O)C(=O)O [lipid I]
- Kd [3]: 1900 ± 400 nM

Compound: lipid II
- Kd [4]: 2600 ± 900 nM

Compound: tunicamycin
- native MS binding to MraY dimer; also inhibits lipid I synthesis by purified Mra [5]: We also captured the binding of a nucleoside antibiotic tunicamycin to the MraY dimer.
